Data reported in US20050222234A1, “Mucin production inhibitor” (TAIHO PHARMACEUTICAL CO., LTD., priority 2004, published 2005).

Experiments:
[1] = system: NCI-H292 cells; test: Mucin production inhibitory action (EGF-stimulated, mucin ELISA of culture supernatant); format: cell-based, human; details: for Effect on production of mucin (in words): 1-10 μM, EGF-stimulated NCI-H292 cells
Experimental: Mucin Production Inhibitory Action
The test was carried out in accordance with a partially modified method of Takeyama et al. (Proc. Natl. Acad. Sci. USA, Vol. 96, P. 3081-3086, 1999). The specific procedure will be described as follows. NCI-H292 cells, which are human respiratory tract epithelial cell lines, were suspended in a 10% FCS-containing RPMI 1640-culture medium, and disseminated to a 12-well culture plate so that the cell concentration of each well was adjusted to 2×10^5 cell/well, followed by culturing for two days. Subsequently, the culture medium was changed to a 0.2% FCS-containing RPMI culture medium, followed by culturing for another two days. The thus-cultured cells were employed in the test. Each test drug and EGF (25 ng/mL) were added to each well, and the mucin level of the supernatant of the culture 48 hours after initiation of culturing was determined through the ELISA method. Percent inhibition (%) with regard to control value was calculated by supposing the difference produced by subtracting normal value from control value to be 100%. In this case, the control value is defined as the mucin amount in the culture supernatant to which only EGF was added, while the normal value is defined as the muchin amount in the culture supernatant containing neither of test drug and EGF. In addition, cilomilast (J. Pharmacol. Exp. Ther., Vol. 284, p. 420-426, 1998) and roflumilast (J. Pharmacol. Exp. Ther., Vol. 297, p. 267-279, 2001), which are typical phosphodiesterase (IV) inhibitors were also tested in a similar manner.

[2] = system: Lewis Wistar rats; test: Inhibitory effect on hyperplasia of goblet cells in the respiratory tract epithelium (Sephadex-induced, PAS staining); format: in vivo, rat; details: oral, once per day for seven days; Sephadex i.v.; ratio of PAS-positive area
Experimental: (Welch test), the value in each parenthesis represents percent inhibition (%)
The test was carried out in accordance with a partially modified method of Matsubara et al. (Int. Arch. Allergy Immunol., Vol. 116, p. 67-75, 1998). The specific procedure will be described as follows. To each of the 7-week old male Lewis Wistar rats, a Sephadex suspension (0.1. mg/mL/head) was intravenously administered (total three times: day 0, 2, and 5). Two days after the final administration, the rat was slaughtered by exsanguination under anesthetic with pentobarbital. The lung-tissue was extirpated from the rat and immersed in a neutral formalin buffer for fixation. […] The ratio of the PAS-stained positive area to the respiratory tract epithelium was calculated by use of an image analysis software (Winroof). Each test compound was suspended in 0.5% hydroxypropylmethyl cellulose (HPMC), and the suspension-was orally administered once per day for continuous seven days from the start of administration of Sephadex. In the Figure, numerical data are represented by mean value±standard deviation (each group: 11-12 samples).

Structure (SMILES): COc1ccc([C@]2(C#N)CC[C@@H](C(=O)O)CC2)cc1OC1CCCC1 [Cilomilast, cilomilast, reference compound]
- Effect on production of mucin (in words) [1]: promoted production of mucin

Structure (SMILES): COc1ccc(-c2nc3cc(-n4cncn4)ccc3[nH]2)cc1OCC1CC1 [Compound 1]
- Effect on hyperplasia of goblet cells (in words, FIG. 1) [2]: inhibitory effect

Structure (SMILES): CCC(CC)Oc1cc(-c2nc3cc(-n4cncn4)ccc3[nH]2)ccc1OC [Compound 5]
- inhibition at 1 µM ([1]; Homo sapiens, NCI-H292, 1 μM test drug, EGF 25 ng/mL, supernatant after 48 hours, read-out: Percent inhibition of mucin production (%)): 15.4%
- inhibition at 3 µM ([1]; Homo sapiens, NCI-H292, 3 μM test drug, EGF 25 ng/mL, supernatant after 48 hours, read-out: Percent inhibition of mucin production (%)): 40.2%
- inhibition at 10 µM ([1]; Homo sapiens, NCI-H292, 10 μM test drug, EGF 25 ng/mL, supernatant after 48 hours, read-out: Percent inhibition of mucin production (%)): 65.9%

Structure (SMILES): O=C(Nc1c(Cl)cncc1Cl)c1ccc(OC(F)F)c(OCC2CC2)c1 [Roflumilast, roflumilast, reference compound]
- Effect on production of mucin (in words) [1]: promoted production of mucin
